{"source": "paper PMC4491433", "about": "(Molecular and cellular endocrinology, 2010)", "key": {"[1]": {"target": "hLH receptor (Homo sapiens, UniProt P22888)", "sequence (P22888 27-699)": "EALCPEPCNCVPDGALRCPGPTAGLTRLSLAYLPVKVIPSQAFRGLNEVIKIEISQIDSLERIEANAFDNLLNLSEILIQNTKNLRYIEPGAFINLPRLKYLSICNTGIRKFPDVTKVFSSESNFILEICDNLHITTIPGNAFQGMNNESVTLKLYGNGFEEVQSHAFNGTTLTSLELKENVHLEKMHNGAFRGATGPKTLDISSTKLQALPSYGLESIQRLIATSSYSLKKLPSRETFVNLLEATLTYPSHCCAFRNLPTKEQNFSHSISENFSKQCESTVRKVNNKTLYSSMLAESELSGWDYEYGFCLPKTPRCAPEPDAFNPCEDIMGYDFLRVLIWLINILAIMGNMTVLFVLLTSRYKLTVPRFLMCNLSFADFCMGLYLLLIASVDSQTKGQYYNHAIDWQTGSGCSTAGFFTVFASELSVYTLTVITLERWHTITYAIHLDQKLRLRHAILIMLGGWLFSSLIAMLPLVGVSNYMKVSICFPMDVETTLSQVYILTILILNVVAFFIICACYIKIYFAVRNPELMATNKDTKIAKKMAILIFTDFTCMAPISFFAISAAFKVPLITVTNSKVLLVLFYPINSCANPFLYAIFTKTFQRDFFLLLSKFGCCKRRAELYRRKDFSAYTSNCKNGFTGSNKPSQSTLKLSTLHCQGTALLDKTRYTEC", "assay": "inhibition of LH EC80 response at hLH receptor", "type": "cell-based"}, "[2]": {"target": "T1, human FSH receptor (hFSHR) (Homo sapiens, UniProt P23945)", "T1 sequence (P23945 18-695)": "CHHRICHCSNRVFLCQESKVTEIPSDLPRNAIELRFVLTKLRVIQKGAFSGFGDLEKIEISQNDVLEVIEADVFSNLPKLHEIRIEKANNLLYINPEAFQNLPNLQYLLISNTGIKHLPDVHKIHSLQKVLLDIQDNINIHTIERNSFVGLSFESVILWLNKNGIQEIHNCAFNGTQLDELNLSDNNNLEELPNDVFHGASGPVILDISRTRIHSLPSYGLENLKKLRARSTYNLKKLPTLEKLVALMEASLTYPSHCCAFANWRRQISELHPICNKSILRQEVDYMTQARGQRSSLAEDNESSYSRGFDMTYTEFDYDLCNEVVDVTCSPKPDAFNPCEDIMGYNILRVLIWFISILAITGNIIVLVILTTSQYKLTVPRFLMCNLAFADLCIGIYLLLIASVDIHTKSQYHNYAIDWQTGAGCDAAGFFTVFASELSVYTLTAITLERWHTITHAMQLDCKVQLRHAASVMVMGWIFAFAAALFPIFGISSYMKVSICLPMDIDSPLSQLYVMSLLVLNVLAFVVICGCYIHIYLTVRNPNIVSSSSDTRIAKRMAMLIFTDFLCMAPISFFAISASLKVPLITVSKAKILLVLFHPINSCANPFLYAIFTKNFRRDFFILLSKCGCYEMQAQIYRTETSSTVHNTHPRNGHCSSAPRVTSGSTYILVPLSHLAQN", "assay": "HTRF cAMP inhibition", "type": "cell-based"}}, "data": [{"smiles": "COc1ccc(C(=O)Nc2ccc(C(C)(C)C#N)cc2)cc1OC", "note": "[ADX61623]", "values": [{"measurement": "IC50", "setting": "[1]", "result": "3400 ± 800", "unit": "nM"}, {"measurement": "IC50", "setting": "[2]", "result": "700 ± 200", "unit": "nM"}]}]}
